Laboratory results from patent publication US20220062240A1, “METHODS OF TREATING CANCER USING A CLK INHIBITOR” (BioSplice Therapeutics, Inc., priority 2018, published 2022).
pEC50: −log10 of the molar value. Like-named read-outs stand apart in the source and are kept apart here. Blank lines part the entries; values can stand above or below the compound they belong to.

How the values were obtained:
[1] = system: liver cancer (3 cell lines); test: CellTiter-Glo Viability Assay, liver cancer; type: cell-based; details: Homo sapiens, inhibition of cancer cell proliferation
DU4475 = test: CellTiter-Glo Viability Assay, breast cancer; type: cell-based; details: Homo sapiens, DU-4475, 96 h; DU4475, breast cancer, four days; read-out: EC50
MCF7 = test: CellTiter-Glo Viability Assay, breast cancer; type: cell-based; details: Homo sapiens, 96 h; MCF7, breast cancer, four days; read-out: EC50
ZR-75-1 = test: CellTiter-Glo Viability Assay, breast cancer; type: cell-based; details: Homo sapiens, 96 h; ZR-75-1, breast cancer, four days; read-out: EC50
T47D = test: CellTiter-Glo Viability Assay, breast cancer; type: cell-based; details: Homo sapiens, 96 h, breast cancer, four days, read-out: EC50
CAMA1 = test: CellTiter-Glo Viability Assay, breast cancer; type: cell-based; details: Homo sapiens, CAMA-1, 96 h; CAMA1, breast cancer, four days; read-out: EC50
HCC1599 = test: CellTiter-Glo Viability Assay, breast cancer; type: cell-based; details: Homo sapiens, 96 h; HCC1599, breast cancer, four days; read-out: EC50
BT-549 = test: CellTiter-Glo Viability Assay, breast cancer; type: cell-based; details: Homo sapiens, 96 h; BT-549, breast cancer, four days; read-out: EC50
MDA-MB-231-Luc = test: CellTiter-Glo Viability Assay, breast cancer; type: cell-based; details: Homo sapiens, 96 h; MDA-MB-231-Luc, breast cancer, four days; read-out: EC50
[2] = system: prostate cancer (5 cell lines); test: CellTiter-Glo Viability Assay, prostate cancer; type: cell-based; details: Homo sapiens
CLK3 = CLK3 (Homo sapiens, UniProt P49761); test: CLK3 kinase activity assay (Z-lyte, Ser/Thr 18 peptide)
Chain of CLK3 (P49761 whole entry): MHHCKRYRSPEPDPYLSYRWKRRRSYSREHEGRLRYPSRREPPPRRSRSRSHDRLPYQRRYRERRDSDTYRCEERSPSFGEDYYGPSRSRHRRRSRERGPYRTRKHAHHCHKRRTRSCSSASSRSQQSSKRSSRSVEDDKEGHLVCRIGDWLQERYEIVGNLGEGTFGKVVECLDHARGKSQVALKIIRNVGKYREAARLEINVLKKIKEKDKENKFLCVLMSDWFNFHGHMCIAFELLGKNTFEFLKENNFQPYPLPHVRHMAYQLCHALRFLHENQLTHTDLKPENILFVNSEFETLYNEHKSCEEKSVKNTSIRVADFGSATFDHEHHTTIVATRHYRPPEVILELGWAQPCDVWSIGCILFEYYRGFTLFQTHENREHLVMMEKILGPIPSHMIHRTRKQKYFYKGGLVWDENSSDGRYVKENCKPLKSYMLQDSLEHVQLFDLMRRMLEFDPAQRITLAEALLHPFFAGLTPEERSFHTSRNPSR
Experimental: Each compound was dissolved in DMSO as a 10 mM stock and used to prepare compound source plates.
This is a non-radioactive assay using fluorescence resonance energy transfer (FRET) between coumarin and fluorescein to detect kinase activity which is represented as a ratio of coumarin emission/fluorescein emission.
All reactions were performed in duplicate. Unphosphorylated (“0% Control”) and phosphorylated (“100% control”) forms of Ser/Thr 18 served as control reactions. Additionally, an 11-point dose-response curve of Staurosporine (1 uM top) was run to serve as a positive compound control.
After incubation, Development Reagent A was diluted in Development Buffer then added to the reaction and allowed to further incubate for one hour at room temperature.
Dose-response curves were generated and inhibitory concentration (IC50) values were calculated using non-linear regression curve fit in the Dotmatics' Studies Software (Bishops Stortford, UK).
Compounds were acoustically transferred on 1536-well plates (Echo 550, LabCyte) instrument. Kinase, peptide, and ATP reagents from the Z′-LYTE Kinase Assay Kits (Thermo Fisher) were dispensed onto the compound plates using an EL406 liquid dispenser (BioTek). Plates were incubated in the dark at room temperature for 1 hr. Development reagent was added to the plates and then incubated in the dark at room temperature for 1 hr. Fluorescence signal form the plate was then read using an EnVision Multilabel Plate Reader (Perkin Elmer).

[3] = system: lung cancer (4 cell lines); test: CellTiter-Glo Viability Assay, lung cancer; type: cell-based; details: Homo sapiens, inhibition of cancer cell proliferation
CLK2 = biological target: T1, CLK2 (Homo sapiens, UniProt P49760); test: CLK2 kinase activity assay (Z-lyte, Ser/Thr 6 peptide); type: biochemical; details: recombinant CLK2 kinase, ATP 60 μM; read-out: EC50
T1 construct: purchased Thermo Fisher (Life Technologies), Z'-LYTE Kinase Assay Kits
T1 sequence (P49760 whole entry): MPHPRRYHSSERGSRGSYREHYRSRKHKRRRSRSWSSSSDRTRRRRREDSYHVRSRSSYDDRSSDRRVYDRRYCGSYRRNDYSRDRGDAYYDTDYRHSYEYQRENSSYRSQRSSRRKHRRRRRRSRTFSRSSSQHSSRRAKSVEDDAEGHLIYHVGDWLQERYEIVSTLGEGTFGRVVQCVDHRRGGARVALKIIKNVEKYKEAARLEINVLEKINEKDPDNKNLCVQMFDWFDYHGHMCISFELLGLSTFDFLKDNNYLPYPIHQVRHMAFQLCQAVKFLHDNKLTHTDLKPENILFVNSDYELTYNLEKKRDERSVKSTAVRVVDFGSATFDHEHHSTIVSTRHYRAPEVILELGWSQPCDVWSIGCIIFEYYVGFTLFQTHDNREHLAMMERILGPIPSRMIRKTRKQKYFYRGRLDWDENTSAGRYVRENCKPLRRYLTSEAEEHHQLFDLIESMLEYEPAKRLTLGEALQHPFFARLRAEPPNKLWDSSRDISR
Experimental: All reactions were performed in duplicate.

[4] = system: ovarian cancer (4 cell lines); test: CellTiter-Glo Viability Assay, ovarian cancer; type: cell-based; details: Homo sapiens, inhibition of cancer cell proliferation
[5] = system: colorectal cancer (6 cell lines); test: CellTiter-Glo Viability Assay, colorectal cancer; type: cell-based; details: Homo sapiens, inhibition of cancer cell proliferation
all 50 cell lines = test: CellTiter-Glo Viability Assay, average across all cell lines; type: cell-based; details: Homo sapiens; across all 50 cell lines; read-out: average EC50 for inhibition of cancer cell proliferation
In short: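 Human cancer cell lines from breast, colorectal, haematopoietic/lymphoid, liver, lung, ovarian, pancreatic and prostate tumours were seeded at 300-3,000 cells/well and exposed to compound in duplicate for four days at 37° C, 5% CO2. Viable cells were measured by ATP luminescence; EC50 values came from dose-response curves.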

[6] = system: haematopoietic & lymphoid tumors (13 cell lines); test: CellTiter-Glo Viability Assay, haematopoietic & lymphoid tumors; type: cell-based; details: Homo sapiens, inhibition of cancer cell proliferation
[7] = system: pancreatic cancer (8 cell lines); test: CellTiter-Glo Viability Assay, pancreatic cancer; type: cell-based; details: Homo sapiens, inhibition of cancer cell proliferation
[8] = SNU-398, SNU398 cell line, read-out: Liver cancer, EC50 SNU398
[9] = HEPG2 cell line, read-out: Liver cancer, EC50 HEPG2
[10] = PLC/PRF/5 cell line, read-out: Liver cancer, EC50 PLC/PRF/5
[11] = DU-145, read-out: Prostate cancer EC50 Du-145
[12] = PC-3, PC3 cell line, inhibition of cancer cell proliferation, read-out: Prostate cancer EC50 PC3
[13] = 22Rv1 cell line, inhibition of cancer cell proliferation, read-out: Prostate cancer EC50 22Rv1
[14] = LNCap clone FGC cell line, inhibition of cancer cell proliferation, read-out: Prostate cancer EC50 LNCap clone FGC
[15] = VCaP (Sigma) cell line, inhibition of cancer cell proliferation, read-out: Prostate cancer EC50 VCaP (Sigma)
[16] = A-427, A427 cell line, read-out: Lung cancer, EC50 (μM) A427
[17] = HCC78, HCC-78 cell line, read-out: Lung cancer, EC50 (μM) HCC-78
[18] = NCI-H460 cell line, read-out: Lung cancer, EC50 (μM) NCI-H460
[19] = NCI-H522 cell line, read-out: Lung cancer, EC50 (μM) NCI-H522
[20] = PA-1, PA1 cell line, read-out: Ovarian cancer, EC50 (μM) PA1
[21] = TOV112D, TOV-112D cell line, read-out: Ovarian cancer, EC50 (μM) TOV-112D
[22] = OV-90 cell line, read-out: Ovarian cancer, EC50 (μM) OV-90
[23] = OVCAR-3 cell line, read-out: Ovarian cancer, EC50 (μM) OVCAR-3
[24] = HCT-116, HCT116 cell line, read-out: Colorectal cancer, EC50 (μM) HCT116
[25] = HT-29, HT29 cell line, read-out: Colorectal cancer, EC50 (μM) HT29
[26] = SW-620, SW620 cell line, read-out: Colorectal cancer, EC50 (μM) SW620
[27] = DLD-1 cell line, read-out: Colorectal cancer, EC50 (μM) DLD-1
[28] = SW48 cell line, read-out: Colorectal cancer, EC50 (μM) SW48
[29] = SW480 cell line, read-out: Colorectal cancer, EC50 (μM) SW480
[30] = DND41, DND-41 cell line, read-out: Haematopoietic & Lymphoid tumors, EC50 (μM) DND-41
[31] = MV4-11, MV-4-11 cell line, read-out: Haematopoietic & Lymphoid tumors, EC50 (μM) MV-4-11
[32] = Rec1, REC-1 cell line, read-out: Haematopoietic & Lymphoid tumors, EC50 (μM) REC-1
[33] = SU-DHL-4, SUDHL4 cell line, read-out: Haematopoietic & Lymphoid tumors, EC50 (μM) SUDHL4
[34] = HL-60 cell line, read-out: Haematopoietic & Lymphoid tumors, EC50 (μM) HL-60
[35] = JM1 cell line, read-out: Haematopoietic & Lymphoid tumors, EC50 (μM) JM1
[36] = JURKAT, Clone E6-1 cell line, read-out: Haematopoietic & Lymphoid tumors, EC50 (μM) JURKAT, Clone E6-1
[37] = JeKo-1 cell line, read-out: Haematopoietic & Lymphoid tumors, EC50 (μM) JeKo-1
[38] = KASUMI-1 cell line, read-out: Haematopoietic & Lymphoid tumors, EC50 (μM) KASUMI-1
[39] = Loucy cell line, read-out: Haematopoietic & Lymphoid tumors, EC50 (μM) Loucy
[40] = MOLT-4 cell line, read-out: Haematopoietic & Lymphoid tumors, EC50 (μM) MOLT-4
[41] = TF-1 cell line, read-out: Haematopoietic & Lymphoid tumors, EC50 (μM) TF-1
[42] = TOLEDO cell line, read-out: Haematopoietic & Lymphoid tumors, EC50 (μM) TOLEDO
[43] = BXPC-3, BxPC3 cell line, read-out: Pancreatic cancer, EC50 BxPC3
[44] = CAPAN-1, Capan1 cell line, read-out: Pancreatic cancer, EC50 Capan1
[45] = Capan-2, Capan2 cell line, read-out: Pancreatic cancer, EC50 Capan2
[46] = MIA PaCa-2 cell line, read-out: Pancreatic cancer, EC50 MIA PaCa-2
[47] = PANC 05.04 cell line, read-out: Pancreatic cancer, EC50 PANC 05.04
[48] = PANC-1 cell line, read-out: Pancreatic cancer, EC50 PANC-1
[49] = UPAFII cell line, read-out: Pancreatic cancer, EC50 UPAFII

pEC50 [1, 8]: 6.80 | pEC50 [1, 9]: < 5.00 | pEC50 [1, 10]: < 5.00 | pEC50 (DU4475): 7.38 | pEC50 (MCF7): < 5.00 | pEC50 (ZR-75-1): 5.16 | pEC50 (T47D): 5.49 | pEC50 (CAMA1): 5.82 | pEC50 (HCC1599): 6.61 | pEC50 (BT-549): 6.48 | pEC50 (MDA-MB-231-Luc): 5.18 | pEC50 [2, 11]: < 5.00 | pEC50 [2, 12]: 5.47 | pEC50 [2, 13]: 5.10 | pEC50 [2, 14]: < 5.00 | pEC50 [2, 15]: < 5.00 | pEC50 (CLK3): 7.79 | EC50 [3, 16]: 1.31 µM | EC50 [3, 17]: > 10 µM | EC50 [3, 18]: > 10 µM | EC50 [3, 19]: 0.224 µM | pEC50 (CLK2): 8.48 | EC50 [4, 20]: 0.767 µM | EC50 [4, 21]: 1.45 µM | EC50 [4, 22]: > 10 µM | EC50 [4, 23]: 0.436 µM | EC50 [5, 24]: 3.81 µM | EC50 [5, 25]: > 10 µM | EC50 [5, 26]: 1.09 µM | EC50 [5, 27]: 9.99 µM | EC50 [5, 28]: 5.05 µM | EC50 [5, 29]: 1.38 µM | EC50 [6, 30]: 0.959 µM | EC50 [6, 31]: 0.121 µM | EC50 [6, 32]: 5.51 µM | EC50 [6, 33]: 0.365 µM | EC50 [6, 34]: 3.21 µM | EC50 [6, 35]: 0.394 µM | EC50 [6, 36]: > 10 µM | EC50 [6, 37]: 0.39 µM | EC50 [6, 38]: 0.767 µM | EC50 [6, 39]: 0.485 µM | EC50 [6, 40]: > 10 µM | EC50 [6, 41]: > 10 µM | EC50 [6, 42]: 0.402 µM | pEC50 [7, 43]: < 5.00 | pEC50 [7, 44]: 5.44 | pEC50 [7, 45]: < 5.00 | pEC50 [7, 46]: 6.16 | pEC50 [7, 47]: < 5.00 | pEC50 [7, 48]: < 5.00 | pEC50 [7, 49]: < 5.00
Structure (SMILES): O=C1COc2cccc(c2)-c2cncc3[nH]c(nc23)-c2n[nH]c3ccc(cc23)-c2cncc(c2)N1 [Compound 56]
pEC50 (all 50 cell lines): 5.30

pEC50 [1, 8]: 7.51 | pEC50 [1, 9]: 5.68 | pEC50 [1, 10]: 5.80 | pEC50 (DU4475): 6.88 | pEC50 (MCF7): 5.74 | pEC50 (ZR-75-1): 6.28 | pEC50 (T47D): 5.91 | pEC50 (CAMA1): 5.99 | pEC50 (HCC1599): 6.42 | pEC50 (BT-549): 6.32 | pEC50 (MDA-MB-231-Luc): 6.30 | pEC50 [2, 11]: 6.75 | pEC50 [2, 12]: 6.50 | pEC50 [2, 13]: 6.92 | pEC50 [2, 14]: 5.97 | pEC50 [2, 15]: 6.46 | pEC50 (CLK3): 7.92 | EC50 [3, 16]: 0.177 µM | EC50 [3, 17]: 0.9 µM | EC50 [3, 18]: 0.454 µM | EC50 [3, 19]: 0.103 µM | pEC50 (CLK2): 8.80 | EC50 [4, 20]: 0.147 µM | EC50 [4, 21]: 0.292 µM | EC50 [4, 22]: 0.847 µM | EC50 [4, 23]: 0.162 µM | EC50 [5, 24]: 0.15 µM | EC50 [5, 25]: 0.455 µM | EC50 [5, 26]: 0.066 µM | EC50 [5, 27]: 0.132 µM | EC50 [5, 28]: 0.057 µM | EC50 [5, 29]: 0.165 µM | EC50 [6, 30]: 0.106 µM | EC50 [6, 31]: 0.013 µM | EC50 [6, 32]: 0.089 µM | EC50 [6, 33]: 0.074 µM | EC50 [6, 34]: 1.13 µM | EC50 [6, 35]: 0.032 µM | EC50 [6, 36]: 0.271 µM | EC50 [6, 37]: 0.067 µM | EC50 [6, 38]: 0.185 µM | EC50 [6, 39]: 0.145 µM | EC50 [6, 40]: 0.314 µM | EC50 [6, 41]: 0.921 µM | EC50 [6, 42]: 0.065 µM | pEC50 [7, 43]: 6.34 | pEC50 [7, 44]: 6.49 | pEC50 [7, 45]: 6.60 | pEC50 [7, 46]: 6.92 | pEC50 [7, 47]: 6.12 | pEC50 [7, 48]: 6.24 | pEC50 [7, 49]: 6.72
Structure (SMILES): CN1CCCCN(C)c2nccc3[nH]c(nc23)-c2n[nH]c3ccc(cc23)-c2cncc(c2)C1 [Compound 58]
pEC50 (all 50 cell lines): 6.36
